Literature values, collected in article PMC11322901 (Chemical Science, 2024).

Tests used:
[1] = target: GST; conditions: read-out: Ki of monovalent EA inhibitor
[2] = target: CaM(Ca2+) (Mus musculus, UniProt P0DP26)

Compound	Ki [1]	Affinity for CaM(Ca2+) [2]
C=C(CC)C(=O)c1ccc(OCC(=O)O)c(Cl)c1Cl [EA]	1000 to 5000 nM	
mastoparan		low nanomolar
